This data set is described as follows: Human HepG2 cell viability assay in 384 well format. It is filed as toxicity, cell-based. Further details: dose 125 nL, time 70.5 hour; cytotoxicity at 70.5 h: concentration not given beside the values. As to conditions: HepG2 cells, read-out: Inhibition.
For the compound `Cc1nnc(N2CCN(C)C3(CCC(=O)N(CCO)CC3)C2)s1` (stereo unspecified), the cytotoxicity at 70.5 h amounted to 22.1%.
Consider `Fc1ccccc1CN1CCCC2(CCN(c3ncccn3)C2)C1` (stereo unspecified), for which the cytotoxicity at 70.5 h is -9.02%.
In the case of `OCC1COCCN(Cc2cc(C3CCCCC3)no2)C1` (stereo unspecified), the cytotoxicity at 70.5 h was -9.08%.
Regarding `Cc1ccc2nc(C(=O)N3CC(n4nc(C)cc4C)C3)cn2c1`, the cytotoxicity at 70.5 h was -9.46%.
For the compound `Cc1nc(N2CCC(O)(c3ccccc3)CC2)c2c(C)nn(C)c2n1`, the cytotoxicity at 70.5 h is -3.33%.
Consider `CC(C)NC1CCCc2nc(-c3ccccc3)ncc21` (stereo unspecified), for which the cytotoxicity at 70.5 h was -14.3%.
Turning to `O=C1NCCN(CC2CCCCC2)C1CC(=O)N1CCc2n[nH]cc2C1` (stereo unspecified), the cytotoxicity at 70.5 h is -1.96%.
Under `COc1ccc(C(=O)N2C[C@@H](O)[C@H](NCc3cnc(C)cn3)C2)cc1` stands 22.1%; under `CCn1c(C)nnc1SCCNC(=O)c1cnc(N(C)C)nc1C`, -2.09%; under `COc1cccc(CCC2CCCN(C(=O)c3ccc(OC)o3)C2)c1` (stereo unspecified), -3.25%.
Turning to `COc1ccccc1OC1(C(=O)O)CCN(c2nc(C)cnc2C)CC1`, the cytotoxicity at 70.5 h is -6.64%.
For `CN(Cc1cc(C2CC2)[nH]n1)C(=O)c1ccccc1C1CCNC1` (stereo unspecified) the value was -3.91%; for `NCC1Cc2cc(-c3cnccn3)cc(Cl)c2O1` (stereo unspecified), 0.342%.
Take `CCCN1CCCC2(CCN(S(=O)(=O)c3cc(C)nn3CC)C2)C1=O` (stereo unspecified): the cytotoxicity at 70.5 h is -21.6%.
Turning to `COCC1CCN(C(=O)c2cn(Cc3ccccc3F)nn2)CC1`, the cytotoxicity at 70.5 h came out at 5.43%.
As for `CCCN1CCCn2nc(CNC(=O)CC3CCS(=O)(=O)C3)cc2C1` (stereo unspecified), the cytotoxicity at 70.5 h was -3.24%.
Turning to `Cc1cc2nc(-c3ccccc3)cc(NCC3CCCOC3)n2n1` (stereo unspecified), the cytotoxicity at 70.5 h came out at 0.476%.
For `CN(C)C(=O)NCC(=O)N(C)Cc1cc(-c2ccccc2)no1` the value was 22%.
Take `CCC(C)CN1CCC(n2cc(C3CCCC3)nn2)CC1` (stereo unspecified): the cytotoxicity at 70.5 h was 0.72%.
For `CCc1cc(N[C@H]2CC[C@@H](N)CC2)n2nc(C)c(C)c2n1` the value was -7.71%; for `COc1cccc(Cn2cc(C3=CCN(CC(=O)N(C)C)CC3)cn2)c1`, -16.4%.
For the compound `CC(C)(C)c1ccc(-c2n[nH]c3c2CN(CC2CCOC2)CC3)cc1` (stereo unspecified), the cytotoxicity at 70.5 h is -12%.
Under `Cc1cc(CN2CCC(CNC(=O)CN3CCCCCC3)C2)[nH]n1` (stereo unspecified) stands 14.2%.
With `CCCNC(=O)c1ccc(S(=O)(=O)NC2(COC)CCCC2)cc1`, the cytotoxicity at 70.5 h is -5.28%.
For `Cn1ccc2c(-c3cc(N4CCOCC4)ncn3)ccnc21` the value was -6.11%; for `CN(C)C(=O)CN1C(=O)[C@H]2CC[C@@H]1CN(Cc1ccccc1C#N)C2`, -4.2%; for `COCCN1CCC(CN(CC2CCCO2)C(=O)CNC(C)=O)CC1` (stereo unspecified), -1.99%.
For `CCCN(Cc1nc2ccccc2[nH]1)Cc1ccccc1OC` the value was -4%; for `CCC[C@@H]1CN(C(=O)CCc2ccco2)C[C@H]1NS(C)(=O)=O`, 29%.
In the case of `CC(C)=CCn1ncc(N2CCCCC2)cc1=O`, the cytotoxicity at 70.5 h is -3.13%.
For `Nc1nc2c(c(N3CCCC(c4nnc5ccccn45)C3)n1)CCNC2` (stereo unspecified) the value was -2.11%.
Under `CCc1oc(C(=O)N(C)Cc2nonc2C)cc1CN(CC)CC` stands -16.6%; under `CCN1CC(C(=O)N2CCN(c3nsc4ccccc34)CC2)CCC1=O` (stereo unspecified), 19.6%.
As for `COc1cccc(C(C(=O)O)N2CCSCC2)c1F` (stereo unspecified), the cytotoxicity at 70.5 h came out at 13%.
Take `Cc1nc(N2CCC(C(O)c3nccn3C)CC2)c2c(C)noc2n1` (stereo unspecified): the cytotoxicity at 70.5 h was 20.2%.
Consider `Cc1c(-c2cnn(C)c2)nc(N)c(C#N)c1-c1ccc(CO)o1`, for which the cytotoxicity at 70.5 h came to 2.44%.
Take `CC1(C)CNC(=O)c2nc(CCCN3CCCC3)[nH]c2C1`: the cytotoxicity at 70.5 h is -8.44%.
For the compound `CC(C)[C@H]1CN(c2ccnc(N)n2)C[C@@H]1NC(=O)C1(C#N)CCOCC1`, the cytotoxicity at 70.5 h was -9.5%.
For `CC(C)c1nnsc1CNC(=O)C1CCCN(C(=O)N(C)C)C1` (stereo unspecified), the cytotoxicity at 70.5 h is -11.2%.
Under `CN(Cc1noc2c1CCCC2)C(=O)C1CCOc2ccccc2C1` (stereo unspecified) stands -3.46%; under `CCc1cc(N(C)Cc2noc(C(C)C)n2)nc(N2CCOCC2)n1`, -13.5%.
As for `CCCC1(CO)CCCN(C(=O)CN2CCN(CC)CC2)C1` (stereo unspecified), the cytotoxicity at 70.5 h is -24.3%.
Under `CSCCC(=O)N[C@H]1CC[C@H](Nc2nccc(-c3ccncc3)n2)C1` stands 23.8%.
For `CCc1csc(CNc2nc3c(s2)c(C)nn3C)n1` the value was 10.5%; for `Cc1cc(N2CCC(O)(C(=O)O)CC2)nc2ccccc12`, -11%; for `CCC(CO)N(Cc1cccs1)C(=O)CSC` (stereo unspecified), 11.9%.
For `Cc1nccc(N[C@H]2CN(C(=O)CN3CCCC3=O)C[C@@H]2C(C)C)n1` the value was -19.5%.
Consider `CCCn1ncc(CN2CCCC(C(=O)c3ccc(SC)cc3)C2)c1C` (stereo unspecified), for which the cytotoxicity at 70.5 h is -9.31%.
As to `CN(Cc1ccno1)C(=O)c1cccc(CC2CCNCC2)c1`, the cytotoxicity at 70.5 h was determined as 6.56%.
As for `CCN1CCCC1CNC(=O)c1cc(COc2ccccc2F)[nH]n1` (stereo unspecified), the cytotoxicity at 70.5 h was -4.57%.
For `Cc1cc(C)c2c(N3CCC(C(=O)N4CCCC4)CC3)ncnc2n1` the value was -7.41%; for `CC(C)N1CC2(CCCN(Cc3noc(C4CCCC4)n3)C2)CCC1=O` (stereo unspecified), 3.06%.
Under `CCc1cc(C(=O)N2CCC3(CCCN(CCOC)C3=O)C2)cs1` (stereo unspecified) stands -9.21%; under `CCN1CC2(CCC1=O)CCN(Cc1nncn1C(C)C)CC2`, -5.12%.
For `CCCOCC(=O)N1CCc2c(cccc2S(=O)(=O)N2CCOCC2)C1` the value was 19.4%; for `Cc1nccc(-c2ccccc2)c1C(=O)N1CCC2(CN(C)C(=O)O2)C1` (stereo unspecified), -5.07%; for `CCc1ncc(C(=O)N2CC(Oc3ccccc3Cl)C2)cn1`, 10.7%.
For the compound `O=C(Cc1ccncc1)N1C[C@H]2CC[C@@H]1CN(Cc1cccnc1)C2`, the cytotoxicity at 70.5 h turned out to be 8.28%.
With `CCC(C(=O)NCc1nc(C)cc(C(F)(F)F)n1)n1cccn1` (stereo unspecified), the cytotoxicity at 70.5 h is -11.3%.
Regarding `COc1cccc(-c2n[nH]c3c2CN(C(=O)c2cccc(=O)[nH]2)CC3)c1`, the cytotoxicity at 70.5 h is -6.52%.
In the case of `CCN(CC1CCCN(CCc2cccc(OC)c2)C1)C(=O)CO` (stereo unspecified), the cytotoxicity at 70.5 h is -0.648%.
For `CN1CCN(C[C@@H]2CN(C(=O)NCC3CCCCC3)C[C@@H]2CO)CC1` the value was 27.6%.
Regarding `CCC1(C(=O)O)CCCN(C(=O)c2ccc(N3CCN(C)CC3)cc2)C1` (stereo unspecified), the cytotoxicity at 70.5 h came to 21.4%.
For `CCCc1cc(C(=O)N2C[C@H]3CCC[C@@]3(CO)C2)[nH]n1` the value was -7.84%; for `CC(C)Cc1cc(-c2cc(-c3ccc[nH]3)nc(N)c2C#N)n[nH]1`, 21.1%; for `CCCSCC(=O)N1C[C@@H](NC(C)=O)[C@H](c2ccc(OC)cc2)C1`, -19.4%.
For `O[C@H]1[C@H](n2cc(-c3cncnc3)nn2)c2ccccc2C12CCNCC2` the value was -5.02%.
Regarding `CC(C)=CCN1C[C@H]2CC[C@@H]1CN(CCC(=O)NCc1ccco1)C2`, the cytotoxicity at 70.5 h was determined as 30.2%.
Consider `c1ccc(C2CCCN2C2CSCCSC2)nc1` (stereo unspecified), for which the cytotoxicity at 70.5 h is -4.87%.
For `CCC(CO)N(Cc1ccco1)C(=O)c1cccnc1NC` (stereo unspecified) the value was -2.71%.
Under `CCSCCC(=O)NCc1cc2n(n1)CCN(C(=O)N(C)C)C2` stands -6.68%; under `CC(=O)c1ccc(N2CCC(CO)(CCOc3ccccc3)CC2)nc1`, -11%; under `Cc1nccnc1N1CC[C@@H](NC(=O)c2cnccn2)[C@H](O)C1`, -8.55%.
For `COc1ccc(OCc2nc(C(=O)N3CC[C@H](O)[C@@H](O)C3)co2)cc1` the value was -8.88%; for `Cc1nc(N2CC[C@@H](NC(=O)c3cnccn3)[C@H](O)C2)c2ccsc2n1`, -3.33%.
Consider `COC(=O)CCC(=O)N1CCc2[nH]nc(-c3ccc(F)c(F)c3)c2C1`, for which the cytotoxicity at 70.5 h was -8.06%.
As to `COCCn1ccnc1C1CCCN(C(=O)CSCC2CC2)C1` (stereo unspecified), the cytotoxicity at 70.5 h is -3.02%.
Under `Cc1ccc([C@@H]2CN(S(=O)(=O)c3cccs3)C[C@H]2N(C)C)cc1` stands -2.64%.
Take `CN1CCN(C[C@@H]2CN(C(=O)c3ccccc3C#N)C[C@@H]2CO)CC1`: the cytotoxicity at 70.5 h was 13.9%.
Under `CC(C)C(=O)NCC(=O)N(C)C1CCCN(CCc2ccccc2)C1` (stereo unspecified) stands -5.89%.
As for `CC(=O)c1cc(CN2C[C@H]3CC[C@@H]2CN(S(=O)(=O)N(C)C)C3)cs1`, the cytotoxicity at 70.5 h was found to be 12.5%.
Under `Cc1cc(CN2CCN(C(=O)C(C)C)[C@@H]3CS(=O)(=O)C[C@@H]32)ccc1F` stands -2.32%.
Under `Cc1cc(CC(=O)N2CCCC2c2nc(C(C)C)no2)on1` (stereo unspecified) stands 5.26%; under `CCOCC(=O)N1C[C@@H](NC(C)=O)[C@H](c2ccc(OC)cc2)C1`, -8.31%; under `CCC(O)CNC(=O)c1coc(COc2ccc3sc(C)nc3c2)n1` (stereo unspecified), 12.2%.
In the case of `Cc1cc(N(C)Cc2cc(C)on2)n2nc(C)c(C)c2n1`, the cytotoxicity at 70.5 h is -5.61%.
Turning to `O=C(CCN1CCCC1=O)NCc1cccnc1Oc1ccccc1`, the cytotoxicity at 70.5 h was -3.36%.
`Cc1nsc(NC(=O)N2CCN(Cc3ccc(F)cc3)C(=O)C2)n1`: the cytotoxicity at 70.5 h is -13.5%.
With `COCCNc1nc(C2CCCC2)nc2c1CCNCC2`, the cytotoxicity at 70.5 h worked out at 2.05%.
As for `CC(C)C(=O)NCCNc1nccc(-c2cc(C(=O)O)ccn2)n1`, the cytotoxicity at 70.5 h is -0.446%.
Under `CCNC(=O)N1CCN(Cc2nc3ccccc3[nH]2)[C@@H]2CS(=O)(=O)C[C@@H]21` stands -9.34%.
For `N#Cc1c(SCCN2CCCCC2)sc2c(O)cc(O)nc12` the value was 17.9%; for `CCc1nc(-c2cccc(C(=O)O)c2)no1`, 16.3%; for `CSCCC(NC(=O)c1nc(SC)ncc1Cl)C(=O)O` (stereo unspecified), -0.19%.
For `Cc1cc(C)n(C(=O)Cn2nc(C)c(I)c2C)n1`, the cytotoxicity at 70.5 h was -7.22%.
For the compound `CC1=C(C#N)C(=O)NC(=O)/C1=C\c1c(C)nn(-c2ccc(C)cc2)c1O`, the cytotoxicity at 70.5 h is -2.65%.
